The source of these data is US20120230918A1, “NON-INVASIVE IN VIVO OPTICAL IMAGING METHOD” (Hoffmann-La-Roche Inc., priority 2009, published 2012).

A short description of data set [1]: in vivo. As to conditions: female, BALB/c nude, mouse, eye region (fluorescence signal), iv, 20 μg/200 μl.
Method: Female BALB/c nude mice received inhalation anaesthesia, were placed in the imaging chamber (FIG. 3) and injected i.v. with a dose of 20 μg/200 μl. The fluorescence signal intensity measurements in the eye was started 10 sec before i.v. injection of ICG and images were recorded every second with an acquisition time of 500 ms over a period of 8 minutes. ICG was excited with light at a wavelength range from 671 to 705 nm and the emission was detected at 820 nm.
Female BALB/c nude received inhalation anesthesia, were placed into the imaging chamber and injected i.v. with ICG (20 μg/200 μl). The fluorescence signal intensity was measured starting 10 sec before injection of ICG. Images in the region of interest were recorded every second with an acquisition time of 500 ms over a period of 8 min. ICG was excited with light at a wavelength range from 671 to 705 nm and the emission was detected at 820 nm. The fluorescence intensity from these regions were then calculated and plotted as a function of time.
Female BALB/c nude mice received inhalation anesthesia, were placed in the imaging chamber (FIG. 3) and injected i.v. with a dose of 20 μg/200 μl.
Data set [2] in a line: Fluorescence signal intensity of ICG in eye, liver, kidney, brain and tumor region of a mouse with s.c. Calu3 tumor. Particulars: second experiment, ICG i.v., BALB/c nude mouse with s.c. Calu3 tumor.
Method: (§1) We first evaluated the technical feasibility of this new approach by using indocyanine green (ICG) a fluorescent dye. […] Female BALB/c nude mice received inhalation anaesthesia, were placed in the imaging chamber (FIG. 3) and injected i.v. with a dose of 20 μg/200 μl. The fluorescence signal intensity measurements in the eye was started 10 sec before i.v. injection of ICG and images were recorded every second with an acquisition time of 500 ms over a period of 8 minutes. ICG was excited with light at a wavelength range from 671 to 705 nm and the emission was detected at 820 nm. […] In a second experiment, a BALB/c nude mouse with a s.c. growing tumor (Calu3) was injected with ICG i.v. and signal intensity in eye, liver, kidney, brain and the tumor region was monitored.
(§2) The fluorescence signal intensity in Calu3 xenograft was measured as described before. ROI were identified for the eye, liver, kidney, brain and s.c. growing tumor using the anatomical pictures of the subjects. The fluorescence intensity from these regions were then calculated and plotted as a function of time.
(§3) In a second experiment, a BALB/c nude mouse with a s.c. growing tumor (Calu3) was injected with ICG i.v. and signal intensity in eye, liver, kidney, brain and the tumor region was monitored.
The nature of data set [3]: in vivo. As to conditions: BALB/c nude, mouse, eye (fluorescence signal intensity in the eye region), iv, 20 μg/200 μl.
Method: as §1, §2, §3
For data set [4] the following is noted: injected i.v. into mice; cited from earlier work.
The conditions of data set [5]: after i.v. injection; cited from earlier work.
Data set [6] deals with BMP-2 induced upregulation of Hepcidin mRNA in HepG2 cells. Nature of the data set: Block of BMP-2 induced upregulation of Hepcidin mRNA in HepG2 cells. The data set is classed as cell-based. As to conditions: in vitro.

Turning to `CC1(C)C(/C=C/C=C/C=C/C=C2\N(CCCCS(=O)(=O)O)c3ccc4ccccc4c3C2(C)C)=[N+](CCCCS(=O)(=O)[O-])c2ccc3ccccc3c21` [ICG, Indocyanine green], in the data set “in vivo [1]”, the Tmax was 2 min and the half-life amounted to 6.6 min. In addition, in data set [2], the “accumulation in the liver, time of reaching a plateau” value stood at 3.8 min. In “in vivo [3]”, the Tmax was 1.2 min and the half-life worked out at 5.4 min. Further, in data set [4], the organ of accumulation entry was “accumulates in the liver” and the “time in which cleared from the circulation” value is listed as 2 to 4 min.

On to `NCCC(O)(P(=O)(O)O)P(=O)(O)O` [Pamidronate], for which the serum half life in data set [5] is 20 to 30 min.

B1: non-labeled Hemojuvelin: non-labeled Hemojuvelin (protein, UniProt Q6ZVN8 36-400, looked up)
Hemojuvelin: QCKILRCNAEYVSSTLSLRGGGSSGALRGGGGGGRGGGVGSGGLCRALRSYALCTRRTARTCRGDLAFHSAVHGIEDLMIQHNCSRQGPTAPPPPRGPALPGAGSGLPAPDPCDYEGRFSRLHGRPPGFLHCASFGDPHVRSFHHHFHTCRVQGAWPLLDNDFLFVQATSSPMALGANATATRKLTIIFKNMQECIDQKVYQAEVDNLPVAFEDGSINGGDRPGGSSLSIQTANPGNHVEIQAAYIGTTIIIRQTAGQLSFSIKVAEDVAMAFSAEQDLQLCVGGCPPSQRLSRSERNRRGAITIDTARRLCKEGLPVEDAYFHSCVFDVLISGDPNFTVAAQAALEDARAFLPDLEKLHLFPSD
With B1, the “ability to block BMP-2 induced upregulation of Hepcidin mRNA, non-labeled versus Cy5-labeled” value in data set [6] is given as “did not differ”.

B2: Cy5-labeled Hemojuvelin: Hemojuvelin labeled with Cy5 (conjugate, UniProt Q6ZVN8 36-400, looked up)
Hemojuvelin: B1 Hemojuvelin
modifications: Cy5 label
Turning to B2, the “ability to block BMP-2 induced upregulation of Hepcidin mRNA, non-labeled versus Cy5-labeled” value in data set [6] is listed as “did not differ”.

The Tmax is the time at which the peak concentration occurs. For orientation: half-life means how long it takes for the measured level to halve.
